Measurements: article PMC6112376, “Comprehensive Analyses and Prioritization of Tox21 10K Chemicals Affecting Mitochondrial Function by in-Depth Mechanistic Studies” (Environmental Health Perspectives, 2018)
Read-outs that look alike come from different tables or passages of the source.

How the values were obtained:
[1] = system: HepG2 cells; conditions: cited from earlier work
[2] = system: rat primary hepatocytes; test: MMP assay in rat primary hepatocytes; conditions: for IC50: read-out: MMP assays IC50 (µM) Rat Hepatocytes
[3] = system: HepG2 cells; conditions: for IC50: read-out: MMP assays IC50 (µM) HepG2
[4] = read-out: MMP assays IC50 (µM) qHTS-HepG2
[5] = rat hepatocytes, mean ± SD of three experiments
[6] = HepG2 cells, single number from one experiment
[7] = read-out: MMP assays IC50 (µM), qHTS-HepG2

| Molecule | MMP assays efficacy (%) qHTS-HepG2 [1] | IC50 ([2]; Rattus norvegicus, Hepatocyte) | MMP assays IC50 (µM) HepG2 [3] | MMP assays efficacy (%) HepG2 [3] | IC50 [1, 4] | MMP assays efficacy (%) Rat Hepatocytes [2, 5] | IC50 [2, 5] | MMP assays efficacy (%) HepG2 [3, 6] | IC50 [3, 6] | IC50 [2] | IC50 [3] | IC50 [1, 7] | MMP assays IC50 (µM) HepG2 [3, 6] | MMP assays IC50 (µM) Rat Hepatocytes [2, 5] | MMP assays IC50 (µM) qHTS-HepG2 [1] |
| --- | --- | --- | --- | --- | --- | --- | --- | --- | --- | --- | --- | --- | --- | --- | --- |
| CC(C)(O)c1ccccc1CC[C@@H](SCC1(CC(=O)O)CC1)c1cccc(/C=C/c2ccc3ccc(Cl)cc3n2)c1 [Montelukast sodium] | -72±20% | 24.1 ± 9.54 µM | inactive | inactive |  |  |  |  |  |  |  |  |  |  |  |
| Nc1nc2ccc([N+](=O)[O-])cc2s1 [Compound 2-Amino-6-nitrobenzothiazole] | -70±17% |  |  |  | 12.7 ± 10.5 µM | -81±29% | 22.7 ± 20.4 µM | -89% | 44.7 µM |  |  |  |  |  |  |
| Acriflavine hydrochloride | -131±19% |  |  | -107% | 0.94 ± 0.44 µM |  |  |  |  | 3.55 ± 1.14 µM | 0.44 µM |  |  |  |  |
| C=C1CC[C@H](O)C/C1=C/C=C1\CCC[C@]2(C)[C@@H]([C@H](C)CC[C@@H](O)C(C)(C)O)CC[C@@H]12 [24R,25-Dihydroxyvitamin D3] | -111±10% |  |  |  | 13 ± 2.17 µM | -46±4% | 17.3 µM | -133% | 15.5 µM |  |  |  |  |  |  |
| Verteporfin | -65±5% |  |  |  |  | -43±14% | 21.8 ± 7.79 µM | -127% | 8.69 µM |  |  | 3.27 ± 1.85 µM |  |  |  |
| O=C(c1ccc(O)c(O)c1)c1ccc(O)cc1O [2,3',4,4'-Tetrahydroxybenzophenone] | -89±13% |  |  |  | 7.39 ± 7.14 µM | -69±32% | 40.4 ± 8.45 µM |  | 8.91 µM |  |  |  |  |  |  |
| CC(C)(c1cc(Br)c(OCCO)c(Br)c1)c1cc(Br)c(OCCO)c(Br)c1 | -97±15% |  |  |  | 6.21 ± 0.42 µM | -88±17% | 32.8 ± 2.67 µM | -99% | 11 µM |  |  |  |  |  |  |
| CCCCCCCCOc1ccc(C(=O)O)cc1 [4-Octyloxybenzoic acid] | -100±24% |  |  |  | 39.6 ± 31.3 µM | -57±30% | 48 ± 11.6 µM | inactive |  |  |  |  | inactive |  |  |
| C#C[C@]1(OC(=O)CCCCCC)CC[C@H]2[C@@H]3CCC4=CC(=O)CC[C@@H]4[C@H]3CC[C@@]21C [Noristerat] | -87±18% |  |  |  |  | inactive |  | -117% | 21.8 µM |  |  | 9.81 ± 1.78 µM |  | inactive |  |
| Cc1cc(Nc2ccc(O)cc2)ccc1N | -93±15% |  |  |  | 7.66 ± 0.88 µM | inactive |  | -101% | 14.1 µM |  |  |  |  | inactive |  |
| CCCCCCCCCCCC[N+](C)(C)Cc1ccccc1.[Br-] [Benzyldodecyldimethylammonium bromide] | -97±11% |  |  |  | 11.4 ± 4.34 µM | -44±3% | 18.4 ± 1.5 µM |  | 17.3 µM |  |  |  |  |  |  |
| CCC(=O)O[C@]1(C(=O)CCl)[C@@H](C)C[C@H]2[C@@H]3CCC4=CC(=O)C=C[C@]4(C)[C@@]3(F)[C@@H](O)C[C@@]21C [Clobetasol propionate] | -98±19% | 24.1 ± 9.54 µM |  |  | 24.6 ± 1.67 µM | -39±3% |  | inactive |  |  |  |  | inactive |  |  |
| Cc1cccc(C(C)(C)C)c1O [Phenol, 2-(1,1-dimethylethyl)-6-methyl-] | inactive |  |  |  |  | inactive |  | inactive |  |  |  |  | inactive | inactive | inactive |
| CCCCCCCCCOC(=O)c1ccc(O)cc1 [Nonylparaben] | -101±6% |  |  |  |  | inactive |  | -110% | 7.94 µM |  |  | 4.43 ± 0.3 µM |  | inactive |  |
| CCCCCCCC[N+](C)(CCCCCCCC)CCCCCCCC.[Cl-] [N-Methyl-N,N-dioctyloctan-1-aminium chloride] | -80±6% |  |  |  |  | -100±17% | 19.6 ± 4.89 µM | -89% | 10 µM |  |  | 2.73 ± 0.32 µM |  |  |  |
| Cl.Cl.Nc1ccc(O)c(N)c1 [2,4-Diaminophenol dihydrochloride] | -58±5% |  |  |  | 3.77 ± 1.06 µM | inactive |  | inactive |  |  |  |  | inactive | inactive |  |
| O=Cc1c2ccccc2c(Cl)c2ccccc12 [Compound 10-Chloro-9-anthraldehyde] | -82±26% |  |  |  | 13.9 ± 7.82 µM | -47±21% | 24.3 ± 28.8 µM | inactive |  |  |  |  | inactive |  |  |
| CN1CC(=O)NC1=NC(=O)Nc1cccc(Cl)c1 [Fenobam; McN-3377] | -70±17% |  |  |  | 25.9 ± 1.87 µM | inactive |  | inactive |  |  |  |  | inactive | inactive |  |
| CC(C)[C@@H](C)/C=C/[C@@H](C)[C@H]1CC[C@H]2/C(=C/C=C3\C[C@@H](O)CC[C@@H]3C)CCC[C@]12C [Dihydrotachysterol] | -78±16% |  |  |  | 32.7 ± 1.32 µM | inactive |  | inactive |  |  |  |  | inactive | inactive |  |
| O.O.O.O.[Na+].[O-]c1ccccc1-c1ccccc1 [Sodium 2-phenylphenate tetrahydrate] | -98±8% |  |  |  |  | inactive |  | -77% | 31.6 µM |  |  | 18.5 µM |  | inactive |  |
| CC(=O)O[C@@]12CO[C@@H]1C[C@H](O)[C@@]1(C)C(=O)[C@H](O)C3=C(C)[C@@H](OC(=O)[C@H](O)[C@@H](NC(=O)OC(C)(C)C)c4ccccc4)C[C@@](O)([C@@H](OC(=O)c4ccccc4)[C@H]21)C3(C)C [Docetaxel] | -57±17% | 12.1 ± 4.78 µM | inactive | inactive | 15 ± 29.8 µM |  |  |  |  |  |  |  |  |  |  |
| O=C(c1ccccc1)c1cccc(O)c1 [Compound 3-Hydroxybenzophenone] | -87±9% |  |  |  | 27.7 µM | inactive |  | -86% | 39.8 µM |  |  |  |  | inactive |  |
| O=C(CC(=O)C(F)(F)F)c1ccccc1 [4,4,4-Trifluoro-1-phenyl-1,3-butanedione] | -103±7% |  |  |  | 20.4 ± 6.17 µM | inactive |  | -85% | 31.6 µM |  |  |  |  | inactive |  |
| C(=Cc1ccncc1)c1ccccc1 [Compound 4-Styrylpyridine] | -65±10% |  |  |  | 11.2 ± 5.54 µM | inactive |  | inactive |  |  |  |  | inactive | inactive |  |
| COc1cc(Cl)ccc1Cl [2,5-Dichloroanisole] | inactive |  |  |  |  | inactive |  | inactive |  |  |  |  | inactive | inactive | inactive |
